From ChEMBL document CHEMBL1268979, “Discovery of highly potent and efficacious MC4R agonists with spiroindane N-Me-1,2,4-triazole privileged structures for the treatment of obesity” (Bioorg Med Chem Lett, 2010)
The source made the active and inactive calls. The calls are words filed in the database; no cut-off is given here.

Key:
Melanocortin receptor 4 [1] = molecular target: T1, Melanocortin receptor 4 (Homo sapiens, UniProt P32245); experiment: Inhibition of human MC4 receptor
Melanocortin receptor 4 [2] = molecular target: T1, Melanocortin receptor 4; experiment: Agonist activity at human MC4 receptor; type: functional
Melanocortin receptor 4 [3] = molecular target: T1, Melanocortin receptor 4; experiment: Agonist activity at human MC4 receptor assessed as receptor activation; type: functional
[4] = Agonist activity at human MC1b receptor; type: functional
Homo sapiens = species: Homo sapiens; experiment: Agonist activity at human MC1b receptor assessed as receptor activation; type: functional; set-up: concentration or dose not given beside the values
[5] = Oral bioavailability in Sprague-Dawley rat at 1 mg/kg, iv and 4 mg/kg, po; type: ADME, organism-based; conditions: in vivo
[6] = Clearance in Sprague-Dawley rat at 1 mg/kg, iv and 4 mg/kg, po; type: ADME, organism-based; conditions: in vivo
[7] = Volume of distribution in Sprague-Dawley rat at 1 mg/kg, iv and 4 mg/kg, po; type: ADME, organism-based; conditions: in vivo
[8] = Half life in Sprague-Dawley rat at 1 mg/kg, iv and 4 mg/kg, po; type: ADME, organism-based; conditions: in vivo
Mus musculus [9] = experiment: Reduction in food intake in DIO mouse obesity model at 20 mg/kg, po after 18 hrs; type: functional
Mus musculus [10] = experiment: Reduction in food intake in DIO mouse obesity model at 6 mg/kg, po after 18 hrs; type: functional
Mus musculus [11] = experiment: Reduction in food intake in DIO mouse obesity model at 3 mg/kg, po after 18 hrs; type: functional
Mus musculus [12] = experiment: Reduction in food intake in DIO mouse obesity model at 20 mg/kg, po after 4 hrs; type: functional
Mus musculus [13] = experiment: Reduction in food intake in DIO mouse obesity model at 6 mg/kg, po after 4 hrs; type: functional
Mus musculus [14] = experiment: Reduction in food intake in DIO mouse obesity model at 3 mg/kg, po after 4 hrs; type: functional
Mus musculus [15] = experiment: Reduction in food intake in wild type mouse at 20 mg/kg, po after 4 hrs; type: functional
Mus musculus [16] = experiment: Reduction in food intake in wild type mouse at 10 mg/kg, po after 4 hrs; type: functional
Mus musculus [17] = experiment: Reduction in food intake in wild type mouse at 20 mg/kg, po after 18 hrs; type: functional
Mus musculus [18] = experiment: Reduction in food intake in wild type mouse at 10 mg/kg, po after 18 hrs; type: functional
Mus musculus [19] = experiment: Reduction in food intake in MC4R/3R knockout mouse at 10 mg/kg, po after 4 hrs; type: functional
Mus musculus [20] = experiment: Reduction in food intake in MC4R/3R knockout mouse at 10 mg/kg, po after 18 hrs; type: functional
Mus musculus [21] = experiment: Reduction in food intake in DIO mouse obesity model at 10 mg/kg, po measured for 18 hrs; type: functional
Mus musculus [22] = experiment: Reduction in food intake in DIO mouse obesity model at 1 mg/kg, po measured for 18 hrs; type: functional
Mus musculus [23] = experiment: Reduction in food intake in DIO mouse obesity model at 3 mg/kg, po measured for 18 hrs; type: functional
Mus musculus [24] = experiment: Reduction in body weight in DIO mouse obesity model at 20 mg/kg, po after 4 hrs; type: functional, organism-based; set-up: dose 20 mg/kg
Mus musculus [25] = experiment: Reduction in body weight in DIO mouse obesity model at 6 mg/kg, po after 4 hrs; type: functional, organism-based; set-up: dose 6 mg/kg
Mus musculus [26] = experiment: Reduction in body weight in DIO mouse obesity model at 3 mg/kg, po after 4 hrs; type: functional, organism-based; set-up: dose 3 mg/kg

T1 sequence (P32245 whole entry): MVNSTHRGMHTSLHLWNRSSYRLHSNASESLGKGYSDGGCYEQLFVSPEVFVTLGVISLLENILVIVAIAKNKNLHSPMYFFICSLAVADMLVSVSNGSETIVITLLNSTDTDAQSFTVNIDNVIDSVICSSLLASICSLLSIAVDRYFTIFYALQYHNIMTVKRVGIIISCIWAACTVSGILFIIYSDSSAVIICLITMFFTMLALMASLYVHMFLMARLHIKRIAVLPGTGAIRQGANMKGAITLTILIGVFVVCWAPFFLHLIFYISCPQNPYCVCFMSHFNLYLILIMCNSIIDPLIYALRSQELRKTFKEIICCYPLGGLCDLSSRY

SMILES | IC50 (Melanocortin receptor 4 [1]) [nM] | EC50 (Melanocortin receptor 4 [2]) [nM] | Activity (Melanocortin receptor 4 [3]) [%] | EC50 [4] [nM] | Activity (Homo sapiens) [%] | bioavailability [5] [%] | clearance [6] [mL/min/kg] | Vd [7] [L/kg] | half-life [8] [h] | inhibition in vivo at 20 mg/kg (Mus musculus [9]) [%] | inhibition in vivo at 6 mg/kg (Mus musculus [10]) [%] | inhibition in vivo at 20 mg/kg (Mus musculus [12]) [%] | inhibition in vivo at 6 mg/kg (Mus musculus [13]) [%] | inhibition in vivo at 3 mg/kg (Mus musculus [14]) [%] | inhibition in vivo at 20 mg/kg (Mus musculus [15]) [%] | inhibition in vivo at 10 mg/kg (Mus musculus [16]) [%] | inhibition in vivo at 20 mg/kg (Mus musculus [17]) [%] | inhibition in vivo at 10 mg/kg (Mus musculus [18]) [%] | further results
Cc1nnc(C(C)(C)[C@H]2CC3(CCN(C(=O)[C@@H]4CN(C(C)(C)C)C[C@H]4c4ccc(F)cc4F)CC3)c3cc(Cl)c(C)cc32)o1 | 1.9 | 2.3 | 97 | 1140 | 88 |  |  |  |  |  |  |  |  |  |  |  |  |  | 
Cc1cc2c(cc1Cl)C1(CCN(C(=O)[C@@H]3CN(C(C)(C)C)C[C@H]3c3ccc(F)cc3F)CC1)CC2C(C)(C)c1nnco1 (stereo in doubt; 5d2) [listing 1 of 2 here] |  |  | 92 |  | 57 |  |  |  |  |  |  |  |  |  |  |  |  |  | 
Cc1cnc(C(C)(C)[C@H]2CC3(CCN(C(=O)[C@@H]4CN(C(C)(C)C)C[C@H]4c4ccc(F)cc4F)CC3)c3cc(Cl)c(C)cc32)o1 | 9.7 | 48 | 99 | 1650 | 57 |  |  |  |  |  |  |  |  |  |  |  |  |  | 
Cc1cc2c(cc1Cl)C1(CCN(C(=O)[C@@H]3CN(C(C)(C)C)C[C@H]3c3ccc(F)cc3F)CC1)CC2C(C)(C)c1nnco1 (stereo in doubt; 5d1) [listing 1 of 2 here] | 49 | 211 |  |  |  |  |  |  |  |  |  |  |  |  |  |  |  |  | 
Cc1cc2c(cc1Cl)C1(CCN(C(=O)[C@@H]3CCN(C(C)(C)C)C[C@H]3c3ccc(F)cc3F)CC1)C[C@@H]2C(C)(C)c1ncnn1C | 1.7 | 2.4 | 96 | 1050 | 37 | 86 | 22 | 19 | 11 | 15 | 31 | 30 | 47 | 29 | 24 | 46 | 17 | 37 | inhibition in vivo at 3 mg/kg (Mus musculus [11]): 8%; inhibition in vivo at 10 mg/kg (Mus musculus [19]): 40%; inhibition in vivo at 10 mg/kg (Mus musculus [20]): 19%
Cc1nc(C(C)(C)C2CC3(CCN(C(=O)[C@@H]4CN(C(C)(C)C)C[C@H]4c4ccc(F)cc4F)CC3)c3cc(Cl)c(C)cc32)no1 (stereo not given in full) | 5.7 | 14 | 71 | 855 | 46 |  |  |  |  |  |  |  |  |  |  |  |  |  | 
Cc1cc2c(cc1Cl)C1(CCN(C(=O)[C@@H]3CN(C(C)(C)C)C[C@H]3c3ccc(F)cc3F)CC1)C[C@@H]2C(C)(C)c1ncnn1C | 0.41 | 0.23 | 106 | 125 | 80 | 26 | 6.7 | 5 | 9.4 | 18 | 27 | 38 | 51 | 29 | 24 | 47 | 17 | 32 | inhibition in vivo at 3 mg/kg (Mus musculus [11]): 16%; inhibition in vivo at 10 mg/kg (Mus musculus [19]): 67%; inhibition in vivo at 10 mg/kg (Mus musculus [20]): 43%
Cc1cc2c(cc1Cl)C1(CCN(C(=O)[C@@H]3CC(N(C)C4CCOCC4)C[C@H]3c3ccc(F)cc3F)CC1)C[C@@H]2C(C)(C)c1ncnn1C (stereo not given in full) | 0.43 | 0.11 | 99 | 250 | 49 | 20 | 24 | 9.7 | 5.1 | 17 | 28 | 39 | 56 | 31 | 35 | 46 | 18 | 30 | inhibition in vivo at 3 mg/kg (Mus musculus [11]): 15%; inhibition in vivo at 10 mg/kg (Mus musculus [21]): 31%; inhibition in vivo at 1 mg/kg (Mus musculus [22]): 32%; inhibition in vivo at 3 mg/kg (Mus musculus [23]): 56%; Activity (Mus musculus [24]): Active; Activity (Mus musculus [25]): Active; Activity (Mus musculus [26]): Active
Cc1cc2c(cc1Cl)C1(CCN(C(=O)[C@@H]3CN(C(C)(C)C)C[C@H]3c3ccc(F)cc3F)CC1)CC2C(C)(C)c1nnco1 (stereo in doubt; 5d1) [listing 2 of 2 here] |  |  | 117 |  | 10 |  |  |  |  |  |  |  |  |  |  |  |  |  | 
Cc1cc2c(cc1Cl)C1(CCN(C(=O)[C@@H]3CN(C(C)(C)C)C[C@H]3c3ccc(F)cc3F)CC1)CC2C(C)(C)c1nnco1 (stereo in doubt; 5d2) [listing 2 of 2 here] | 1.3 | 2.2 |  | 138 |  |  |  |  |  |  |  |  |  |  |  |  |  |  | 
Cc1cc2c(cc1Cl)C1(CCN(C(=O)[C@@H]3CN(C(C)(C)C)C[C@H]3c3ccc(F)cc3F)CC1)CC2C(C)(C)c1cnn[nH]1 (stereo not given in full) | 16 | 4.2 | 82 | 1040 | 31 |  |  |  |  |  |  |  |  |  |  |  |  |  | 
Cc1cc2c(cc1Cl)C1(CCN(C(=O)[C@@H]3CN(C4CCOCC4)C[C@H]3c3ccc(F)cc3F)CC1)C[C@@H]2C(C)(C)c1ncnn1C | 0.84 | 0.9 | 105 | 708 | 54 | 35 | 37 | 10 | 3.4 | 11 | 18 | 31 | 37 | 19 | 28 | 40 | 13 | 22 | inhibition in vivo at 10 mg/kg (Mus musculus [19]): 20%
